According to the ASAP Discovery antiviral challenge data (2025):
In brackets after ≈: the same amount, converted by molar mass. Several values for one entry are separate records, joined by “and”; a condition that tells them apart may be missing. Identical values can stand only once.

Key:
[1] = human; liver_microsomes
[2] = mouse; liver_microsomes
[3] = not given; remark: listed apart in the source
[4] = mdck_mdr1

Compound	microsomal CLint [1]	microsomal CLint [2]	solubility kinetic	logD [3]	Papp [4]
CNCc1cc(-c2cc3c(N[C@H](c4ccc5c(c4)S(=O)(=O)NCC5)C(C)C)ncnc3[nH]2)co1 (racemic)	46 µL/min/mg	42 µL/min/mg	372 µM (≈ 179 µg/mL)	1.9	1.2 ×10⁻⁶ cm/s
Cn1ncc(-c2cc3c(N[C@H](c4ccc5c(n4)OCCO5)C(C)(C)C)ncnc3[nH]2)c1C#N (racemic)	81 µL/min/mg	209 µL/min/mg	24 µM (≈ 10.7 µg/mL)	2.7	13.5 ×10⁻⁶ cm/s
CC(C)(C)[C@H](Nc1ncnc2[nH]c(-c3cnn(CC(N)=O)c3)cc12)c1ccc2c(c1)OCCO2 (racemic)	133 µL/min/mg	47 µL/min/mg	195 µM (≈ 90 µg/mL)	3.2	1.66 ×10⁻⁶ cm/s
CC(C)[C@H](Nc1ncnc2[nH]c(-c3cnn(CC(N)=O)c3)cc12)c1ccc2c(c1)S(=O)(=O)CCC2 (racemic)	116 µL/min/mg	61 µL/min/mg	341 µM (≈ 168 µg/mL)	1.9	0.32 ×10⁻⁶ cm/s
CNC(=O)Cn1cc(-c2cc3c(N[C@H](c4ccc5c(c4)S(=O)(=O)CCC5)C(C)C)ncnc3[nH]2)cn1 (single isomer, unassigned)	92 µL/min/mg and 237 µL/min/mg	111 µL/min/mg and 44 µL/min/mg	323 µM and 294 µM	2.4 and 2.3	0.396 ×10⁻⁶ cm/s and 0.916 ×10⁻⁶ cm/s
O=C(Nc1cc2c(cc1Br)CNC2)c1cc(F)cc2[nH]ncc12	11.4 µL/min/mg	299 µL/min/mg	47 µM (≈ 17.6 µg/mL)	1.1	7.65 ×10⁻⁶ cm/s
CC(C)[C@@H](Nc1ncnc2[nH]c(-c3cnn(C)c3C#N)cc12)c1ccc2c(c1)OCCO2	47 µL/min/mg	129 µL/min/mg	20 µM (≈ 8.59 µg/mL)	3.4	5.11 ×10⁻⁶ cm/s
COc1ccc([C@H](NC(=O)c2ncnc3[nH]ccc23)C(C)c2nnn[nH]2)cc1 (mixture of isomers)	2 µL/min/mg	1 µL/min/mg	–	0	1.13 ×10⁻⁶ cm/s
CCNC(=O)c1cc2c(N[C@H](c3ccc4c(c3)OCCO4)C(C)C)ncnc2[nH]1 (racemic)	85 µL/min/mg	88 µL/min/mg	72 µM (≈ 28.5 µg/mL)	3	2.41 ×10⁻⁶ cm/s
CC(C)[C@H](Nc1ncnc(N)c1Cl)c1ccc2c(c1)S(=O)(=O)CCC2 (racemic)	79 µL/min/mg	204 µL/min/mg	–	2.4	10.1 ×10⁻⁶ cm/s
CNC(=O)c1cc2c(N[C@H](c3ccc4c(c3)NC(=O)CO4)C(C)C)ncnc2[nH]1 (racemic)	52 µL/min/mg	20 µL/min/mg	372 µM (≈ 147 µg/mL)	2.8	0.873 ×10⁻⁶ cm/s
Cc1cc(-c2noc(C(F)(F)F)n2)ccc1OCCCc1cc(C(=O)N(C)C)no1	11 µL/min/mg	24.4 µL/min/mg	9 µM (≈ 3.82 µg/mL)	–	2.26 ×10⁻⁶ cm/s
CNCc1cc(-c2cc3c(N[C@H](c4ccc5c(c4)S(=O)(=O)CCC5)C(C)C)ncnc3[nH]2)co1 (racemic)	57 µL/min/mg	52 µL/min/mg	321 µM (≈ 154 µg/mL)	2.1	1.61 ×10⁻⁶ cm/s
CC(C)[C@H](Nc1ncnc2[nH]c(-c3cnn(C)c3C#N)cc12)c1ccc2c(c1)S(=O)(=O)CCC2 (single isomer, unassigned)	935 µL/min/mg and 516 µL/min/mg	311 µL/min/mg and 709 µL/min/mg	22 µM and 26 µM	3.3 and 3.7	4.33 ×10⁻⁶ cm/s and 1.82 ×10⁻⁶ cm/s
CC(C)[C@H](Nc1ncnc2[nH]c(-c3cnn(C)c3)cc12)c1ccc2c(c1)S(=O)(=O)NCC2 (racemic)	120 µL/min/mg	87 µL/min/mg	105 µM (≈ 47.4 µg/mL)	3.2	1.58 ×10⁻⁶ cm/s
CC(C)[C@H](Nc1ncnc2[nH]c(-c3cnn(C)c3C#N)cc12)c1ccc2c(c1)NC(=O)CO2 (racemic)	100 µL/min/mg	177 µL/min/mg	69 µM (≈ 30.5 µg/mL)	4.1	3.07 ×10⁻⁶ cm/s

Compound	microsomal CLint [1]	microsomal CLint [2]	solubility kinetic	logD [3]	Papp [4]
O=C(Nc1ccccc1)Nc1ccc(C(=O)NC2c3cccc(O)c3CC2C(=O)O)cc1 (centres undefined)	9 µL/min/mg	2 µL/min/mg	319 µM (≈ 138 µg/mL)	0.12	0.7 ×10⁻⁶ cm/s
O=C(Nc1ccc2c(c1)CNC2)c1cc(F)cc(-c2cn[nH]c2)c1	36.3 µL/min/mg	553 µL/min/mg	184 µM (≈ 59.3 µg/mL)	0.7	1.62 ×10⁻⁶ cm/s
CC(C)[C@H](Nc1ncnc2[nH]c(-c3cnn(CC(N)=O)c3)cc12)c1ccc2c(n1)OCCO2 (single isomer, unassigned)	12 µL/min/mg and 18 µL/min/mg	5 µL/min/mg and 9 µL/min/mg	377 µM and 395 µM	2.3 and 2.4	1.27 ×10⁻⁶ cm/s and 0.47 ×10⁻⁶ cm/s
CC(C)[C@H](Nc1ncnc2[nH]c(-c3cnn(C)c3C#N)cc12)c1ccc2c(c1)S(=O)(=O)CCC2 (racemic)	490 µL/min/mg	440 µL/min/mg	34 µM (≈ 16.2 µg/mL)	3.6	1.97 ×10⁻⁶ cm/s
N#Cc1cc2c(cc1NC(=O)c1cc(F)cc3[nH]ncc13)CNC2	16.7 µL/min/mg	288 µL/min/mg	193 µM (≈ 62 µg/mL)	0.6	3.9 ×10⁻⁶ cm/s
CC(C)[C@H](Nc1ncnc2[nH]cc(C(N)=O)c12)c1ccc2c(c1)OCCO2 (racemic)	143 µL/min/mg	142 µL/min/mg	375 µM (≈ 138 µg/mL)	3.2	11.1 ×10⁻⁶ cm/s
CC(C)[C@H](Nc1ncnc2[nH]c(-c3cnn(CC(N)=O)c3)cc12)c1ccc2c(n1)OCCO2 (racemic)	14 µL/min/mg	12 µL/min/mg	385 µM (≈ 173 µg/mL)	2.4	2.46 ×10⁻⁶ cm/s
COc1ccc([C@H](CC(=O)O)NC(=O)c2ncnc3[nH]ccc23)cc1 (racemic)	7 µL/min/mg	2 µL/min/mg	–	-0.38	1.7 ×10⁻⁶ cm/s
CCCC[C@H](NC(=O)OC(C)(C)C)C(=O)N[C@H](C(=O)NCc1ccc(CN)cc1)c1ccc(OCc2ccccc2)cc1 (mixture of isomers)	56 µL/min/mg	7.44 µL/min/mg	143 µM	–	0.833 ×10⁻⁶ cm/s
CNCc1cc(-c2cc3c(N[C@H](c4ccc5c(c4)S(=O)(=O)CCC5)C(C)C)ncnc3[nH]2)co1 (single isomer, unassigned)	67 µL/min/mg and 133 µL/min/mg	40 µL/min/mg and 54 µL/min/mg	358 µM and 345 µM	2.1 and 2.2	–
CC(C)[C@H](CO)Nc1ncnc2[nH]ccc12	6 µL/min/mg	10 µL/min/mg	–	1.69	13.1 ×10⁻⁶ cm/s
CNC(=O)c1cc(Cl)c(F)cc1NS(=O)(=O)c1ccc(Oc2ccccc2Cl)cc1	71.3 µL/min/mg	45.6 µL/min/mg	49 µM (≈ 23 µg/mL)	–	6.11 ×10⁻⁶ cm/s
O=C(Nc1ccc2c(c1)CNC2)c1cc(Br)cc2[nH]c(-c3ccccc3)nc12	12.8 µL/min/mg	43.8 µL/min/mg	–	3.6	0.0942 ×10⁻⁶ cm/s
O=C(Nc1cccc2c(C(=O)N[C@H]3c4ccccc4C[C@H]3C(=O)O)c[nH]c12)NC1CC1 (racemic)	6 µL/min/mg	4 µL/min/mg	–	-0.05	1.8 ×10⁻⁶ cm/s
CC(C)[C@H](Nc1ncnc2[nH]c(-c3cnn(C)c3C#N)cc12)c1ccc2c(c1)NC(=O)CO2 (single isomer, unassigned)	115 µL/min/mg and 52 µL/min/mg	81 µL/min/mg and 147 µL/min/mg	26 µM and 19 µM	–	1.22 ×10⁻⁶ cm/s and 2.35 ×10⁻⁶ cm/s
